“And” between values parts separate entries of the source, which are not always exact repeats. Identical values can stand only once. Like-named read-outs stand apart in the source and are kept apart here. Marks after values point to notes of the source that are not given here.
Experiments:
[1] = β-Carotene bleaching assay; conditions: samples 1 mg/mL, 50 °C, 2 h
Protocol: The antioxidant capacity of M. latifolia fractions and isolated constituents by β-carotene bleaching was performed according to a method described by Kassim et al. ([2019]). In brief, 210 µL of β-carotene solution (1 mg/mL in chloroform) was added to Tween 20 (42 µL) and linoleic acid (5 µL) in a round bottom flask. The chloroform was removed by rotary evaporation prior to the addition of […] of distilled water and shaken to form an emulsion. The emulsion (200 µL) was then transferred into each well of a 96-well microplate that contains 50 µL of samples (1 mg/mL). The mixture was incubated at 50 °C in the dark for 2 h, and its absorbance was measured at 470 nm at the initial time (t = 0) and every subsequent 30 min for 2 h (t = 2). Ascorbic acid, α-tocopherol, and BHT were used as positive controls. Methanol was used to replace the test samples as a negative control. The antioxidant activity (AA) was calculated according to the formula (5): (5) AA% = 1 − [(At=0 – At=2)/(Ac=0 – Ac=2)] × 100 whereby At=0 and At=2 are the absorbance of the samples measured at 0 and 2 h, respectively; Ac=0 and Ac=2 are the absorbance of negative control measured at 0 and 2 h, respectively.

[2] = DPPH free radical scavenging assay; conditions: for IC50 / DPPH IC50: mean ± SD of triplicates; for DPPH IC50: ND = IC50 not detected at highest tested concentration (1 mg/mL)
Protocol: Free radical scavenging ability of M. latifolia fractions and compounds were determined using stable free radical 2,2-diphenyl-1-picrylhydrazyl (DPPH) following the method described by Tan et al. ([2019]). The extracts (170 μL) at varying concentrations ([…]) were mixed with 30 μL of methanolic DPPH solution (300 μM) in a 96-well microplate. The mixtures were then incubated at room temperature for 30 min in the dark, followed by an absorbance measurement at 517 nm. For the negative control well, the extract was replaced by methanol. Ascorbic acid, α-tocopherol, and BHT were used as standards.

[3] = target: T1, human-recombinant DPP-4 enzyme (Homo sapiens, UniProt P27487); experiment: DPP-4 inhibitory assay (fluorescence screening kit); format: biochemical
T1 construct: purchased Cayman Chemical (Ann Arbor, MI)
Protocol: DPP-4 inhibitor screening kit (Cayman Chemical, Ann Arbor, MI) was used to evaluate the DPP-4 inhibitory activity of the test samples based on a fluorescence assay method. Briefly, samples (10 μL) with different concentrations in DMSO were each pipetted into a 96-well plate followed by the addition of diluted assay buffer (30 μL), diluted human-recombinant DPP-4 enzyme solution (10 μL), and diluted fluorogenic substrate, Gly-Pro-aminomethylcoumarin (AMC) (50 μL). […] The 96-well plate was shaken and incubated for 30 min at 37 °C.

[4] = highest tested concentration, read-out: DPP-4 IC50 not detected at the highest concentration

T1 sequence (P27487 whole entry): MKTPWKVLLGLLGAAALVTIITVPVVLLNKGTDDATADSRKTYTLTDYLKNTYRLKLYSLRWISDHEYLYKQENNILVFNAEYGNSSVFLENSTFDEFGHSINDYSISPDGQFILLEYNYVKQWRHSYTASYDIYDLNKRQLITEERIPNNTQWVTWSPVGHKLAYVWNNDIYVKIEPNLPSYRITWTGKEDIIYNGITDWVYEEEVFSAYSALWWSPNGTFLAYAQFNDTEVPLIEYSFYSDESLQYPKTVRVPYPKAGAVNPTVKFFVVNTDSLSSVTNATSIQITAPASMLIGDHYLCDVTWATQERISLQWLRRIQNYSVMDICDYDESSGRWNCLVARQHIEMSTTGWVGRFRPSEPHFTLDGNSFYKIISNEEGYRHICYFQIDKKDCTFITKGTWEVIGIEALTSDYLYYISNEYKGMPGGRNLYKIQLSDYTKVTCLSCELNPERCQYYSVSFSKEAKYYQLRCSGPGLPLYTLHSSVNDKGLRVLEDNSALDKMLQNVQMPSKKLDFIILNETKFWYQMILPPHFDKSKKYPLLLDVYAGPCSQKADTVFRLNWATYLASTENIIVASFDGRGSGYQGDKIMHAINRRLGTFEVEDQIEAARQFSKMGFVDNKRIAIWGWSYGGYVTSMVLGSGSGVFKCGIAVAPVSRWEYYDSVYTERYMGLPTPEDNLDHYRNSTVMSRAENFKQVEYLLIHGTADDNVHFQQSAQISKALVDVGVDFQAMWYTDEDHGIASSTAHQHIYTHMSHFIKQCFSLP

Row | Compound | β-Carotene bleaching activity AA (%) [1] | IC50 [2] [µM] | DPPH IC50 [2] [µg/mL] | IC50 [3, 4] [µM] | IC50 ([3]; mean ± SD of triplicates, ND = IC50 not detected at highest tested concentration (1 mg/mL), read-out: DPP-4 IC50 (converted)) [µM] | IC50 ([3]; mean ± SD of triplicates, read-out: DPP-4 IC50 (converted)) [µM] | DPPH IC50 not detected at the highest concentration ([2]; highest tested concentration) [µg/mL]
1 | Cc1c(C)c2c(c(C)c1O)CC[C@@](C)(CCC[C@H](C)CCC[C@H](C)CCCC(C)C)O2 [α-Tocopherol] | 98.01 ± 0.02^a % | 43.6 | 18.79 ± 0.01 |  |  |  | 
2 | CC[C@H](CC[C@@H](C)[C@H]1CC[C@H]2[C@@H]3CC=C4C[C@@H](O)CC[C@]4(C)[C@H]3CC[C@]12C)C(C)C [Compound 1, β-sitosterol] |  |  |  | > 2410 |  |  | 
3 | COc1c(OC)c2c(OC)c3ccoc3cc2oc1=O [Compound 2, halfordin] | 88.48% and 88.48 ± 0.02^b % | 6430 | 1776.01 ± 0.16 | > 3620 |  |  | 
4 | O=C(O)c1ccc(O)c(O)c1 [Compound 4, protocatechuic acid] |  |  |  | > 6490 |  |  | 
5 | O=C1O[C@H]([C@@H](O)CO)C(O)=C1O [Ascorbic acid] | 35.23 ± 0.02^g % | 85.2 | 15.00 ± 0.01 |  |  |  | 
6 | Cc1cc(C(C)(C)C)c(O)c(C(C)(C)C)c1 [BHT, butylated hydroxytoluene] | 76.42% and 76.42 ± 0.02^c % | 44.9 | 9.90 ± 0.03 |  |  |  | 
7 | COC(=O)/C=C/c1ccc(O)cc1 [Compound 3, methyl p-coumarate] | 1.08 ± 0.02^g % |  |  |  | 911 | 911 | > 1000
